Data: patent US8354547B2, “4β-amino podophyllotoxin congeners as anti tumour antibiotics a process for the preparation thereof” (Council of Scientific & Industrial Research, priority 2008, dated 2013)

Tests used:
[1] = tested on: CNS (SK-N-SH) cancer cell line; test: SRB in vitro cytotoxicity assay, CNS SK-N-SH; format: cell-based, human
Experimental: (§1) Single cell suspension of the tumor cells grown in tissue culture were made, cells counted and cell count adjusted to 1×10^5 to 5×10^5 Ninetysix (96) well plates were seeded with this cell suspension, each well receiving 100 μl of it. The plate was then be incubated at 37° C. temperature in CO2 incubator for 24 hours. Drugs were added at appropriate concentrations after 24-hour, incubation followed by further incubation for 48 hours. Experiment was terminated by gently layering the cells in the wells with 30% TCA and plates were kept in refrigerator for 1 hour following which they were washed thoroughly with tap water, dried attained with 0.4% SRB in 1% acetic aid and finally, the bound SRB eluted with 10 mM tris. Absorbance was read at 540 nm, in the microtitre-plate reader. Optical density of drug-treated cells was compared with that of control cells and cell inhibition was calculated as percent values. […]

[2] = tested on: Colon (SW-620) cancer cell line; test: SRB in vitro cytotoxicity assay, Colon SW-620; format: cell-based, human
Experimental: as §1

[3] = tested on: Liver (HEP-2) cancer cell line; test: SRB in vitro cytotoxicity assay, Liver HEP-2; format: cell-based, human
Experimental: as §1

[4] = tested on: Breast (MCF-7) cancer cell line; test: SRB in vitro cytotoxicity assay, Breast MCF-7; format: cell-based, human
Experimental: as §1

[5] = tested on: Colon (Colo-205) cancer cell line; test: SRB in vitro cytotoxicity assay, Colon Colo-205; format: cell-based, human
Experimental: as §1

[6] = tested on: Neuroblastoma (IMR-32) cancer cell line; test: SRB in vitro cytotoxicity assay, Neuroblastoma IMR-32; format: cell-based, human
Experimental: as §1

[7] = molecular target: T1, Topoisomerase-I (Homo sapiens, UniProt P11387); test: Topoisomerase-I relaxation assay; format: biochemical; settings: at 100 μM (FIG. 2)
T1 sequence (P11387 1-765): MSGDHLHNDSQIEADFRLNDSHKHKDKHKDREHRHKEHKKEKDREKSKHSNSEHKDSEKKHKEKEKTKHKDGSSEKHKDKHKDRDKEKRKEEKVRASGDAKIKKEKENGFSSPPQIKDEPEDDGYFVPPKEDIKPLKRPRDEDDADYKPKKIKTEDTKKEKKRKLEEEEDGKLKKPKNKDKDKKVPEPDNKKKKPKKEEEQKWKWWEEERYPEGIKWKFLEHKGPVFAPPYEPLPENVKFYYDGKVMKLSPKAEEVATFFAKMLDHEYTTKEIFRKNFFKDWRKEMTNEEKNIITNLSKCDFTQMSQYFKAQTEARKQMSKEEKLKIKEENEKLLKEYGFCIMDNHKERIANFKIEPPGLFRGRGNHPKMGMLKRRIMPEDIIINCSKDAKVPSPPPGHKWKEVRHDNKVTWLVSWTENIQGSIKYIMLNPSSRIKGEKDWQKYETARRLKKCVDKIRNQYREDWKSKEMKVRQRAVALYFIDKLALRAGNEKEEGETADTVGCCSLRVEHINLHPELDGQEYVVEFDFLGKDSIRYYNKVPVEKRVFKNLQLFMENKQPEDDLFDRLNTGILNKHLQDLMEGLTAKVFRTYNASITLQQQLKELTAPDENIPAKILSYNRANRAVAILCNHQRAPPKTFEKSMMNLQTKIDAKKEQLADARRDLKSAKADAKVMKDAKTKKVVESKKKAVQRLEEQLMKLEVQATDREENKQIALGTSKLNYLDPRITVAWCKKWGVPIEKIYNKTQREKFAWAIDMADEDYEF
Experimental: Apart from this, some of these analogues were evaluated for Topoisomerase-I relaxation, Topoisomerase-II inhibition, DNA laddering assay and DNA cell cycle analysis. Compounds 3c, 4c, 3d and 4d were analyzed for topoisomerase-I assay at 100 μM (FIG. 2) only compound 3d was found active and rest were not active. Compounds 3d, 4d and 4c were analyzed for topoisomerase inhibition assay.
Reaction was assembled in micro centrifuge tube that contains super coiled DNA 250 ng/μl & Topoisomerase-I (4 units) in assay buffer (10 mM Tris-HCl, pH 7.9, 0.15 M NaCl, 0.1% BSA, and 5.0 mM (beta)-mercaptoethanol). In each reaction 2 μl sample was added then volume was made up to 20 μl with water and then incubated at 37° C. Reaction was terminated by addition of 2 μl of 10% SDS. Each sample tube was treated with proteinase K and extracted once with chloroform: isoamyl alcohol. Products were resolved by 0.8% agarose gel electrophoresis in TAE buffer (40 mM tris-acetate, pH 8.0, and 1 mM EDTA) and stained with 0.5 μg/ml ethedium bromide (EtBr).

[8] = tested on: Topoisomerase-II; test: DNA Topoisomerase-II inhibition assay; format: biochemical; settings: FIG. 3
[9] = concentration 1 × 10^−6 (μM/mL), control drug
[10] = concentration 1 × 10^−5 (μM/mL)

SMILES | Growth Inhibition(%) CNS SK-N-SH [1, 9] | Growth Inhibition(%) Colon SW-620 [2, 9] | Growth Inhibition(%) Liver HEP-2 [3, 9] | Growth Inhibition(%) Breast MCF-7 [4, 9] | Growth Inhibition(%) Colon Colo-205 [5, 9] | Growth Inhibition(%) Neuroblastma IMR-32 [6, 9] | Growth Inhibition(%) CNS SK-N-SH [1, 10] | Growth Inhibition(%) Colon SW-620 [2, 10] | Growth Inhibition(%) Liver HEP-2 [3, 10] | Growth Inhibition(%) Breast MCF-7 [4, 10] | Growth Inhibition(%) Colon Colo-205 [5, 10] | Growth Inhibition(%) Neuroblastma IMR-32 [6, 10] | activity in topoisomerase-I assay [7] | activity in topoisomerase inhibition assay (Topoisomerase-II) [8]
COc1cccc2c1C(=O)c1c(O)c3c(c(O)c1C2=O)C[C@@](O)(C(=O)CO)C[C@@H]3O[C@H]1C[C@H](N)[C@H](O)[C@H](C)O1 [ADR, Adriamycin, reference compound] | 36% | 21% | 23% | 23% | 18% | 0% |  |  |  |  |  |  |  | 
COc1cc([C@@H]2c3cc4c(cc3[C@@H](Nc3cccc5cc6ccccc6cc35)[C@@H]3COC(=O)[C@H]23)OCO4)cc(OC)c1OC [Compound 3a, 4β-(1″-Anthrylamino)-4-desoxypodophyllotoxin] |  |  |  |  |  |  | 65% | 25% | 46% | 5% | 55% | 16% |  | 
COc1cc([C@@H]2c3cc4c(cc3[C@@H](Nc3cccc5c3Cc3ccccc3-5)[C@@H]3COC(=O)[C@H]23)OCO4)cc(OC)c1OC [Compound 3b, 4β-(1″-Fluorenylamino)-4-desoxypodophyllotoxin] |  |  |  |  |  |  | 44% | 11% | 77% | 4% | 49% | 0% |  | 
COc1cc([C@@H]2c3cc4c(cc3[C@@H](Nc3ccc5ccc6cccc7ccc3c5c67)[C@@H]3COC(=O)[C@H]23)OCO4)cc(OC)c1OC [Compound 3c, 4β-(1″-Pyrenylamino)-4-desoxypodophyllotoxin] |  |  |  |  |  |  | 59% | 29% | 66% | 0% | 64% | 0% | not active | 
COc1cc([C@@H]2c3cc4c(cc3[C@@H](Nc3ccc(C(=O)c5ccc(F)cc5)cc3)[C@@H]3COC(=O)[C@H]23)OCO4)cc(OC)c1OC [Compound 3e, 4β-[4″-(4″-Fluorobenzoyl)anilino]-4-desoxypodophyllotoxin] |  |  |  |  |  |  | 34% | 10% | 0% | 30% | 68% | 0% |  | 
COc1cc([C@@H]2c3cc4c(cc3[C@@H](Nc3ccc(C(=O)c5ccc(N(CCCl)CCCl)cc5)cc3)[C@@H]3COC(=O)[C@H]23)OCO4)cc(OC)c1OC [Compound 3f, 4β-(4″-{4″-[Di(2″-chloroethyl)amino]benzoyl}anilino)-4-desoxypodophyllotoxin] |  |  |  |  |  |  | 83% | 15% | 45% | 40% | 74% | 0% |  | 
COc1cc([C@@H]2c3cc4c(cc3[C@@H](Nc3cccc5cc6ccccc6cc35)[C@@H]3COC(=O)[C@H]23)OCO4)cc(OC)c1O [Compound 4a, 4′-O-Demethyl-4β-(1″-anthrylamino)-4-desoxypodophyllotoxin] |  |  |  |  |  |  | 38% | 22% | 58% | 0% | 39% | 0% |  | 
COc1cc([C@@H]2c3cc4c(cc3[C@@H](Nc3cccc5c3Cc3ccccc3-5)[C@@H]3COC(=O)[C@H]23)OCO4)cc(OC)c1O [Compound 4b, 4′-O-Demethyl-4β-(1″-fluorenylamino)-4-desoxypodophyllotoxin] |  |  |  |  |  |  | 50% | 15% | 0% | 39% | 55% | 0% |  | 
COc1cc([C@@H]2c3cc4c(cc3[C@@H](Nc3ccc5ccc6cccc7ccc3c5c67)[C@@H]3COC(=O)[C@H]23)OCO4)cc(OC)c1O [Compound 4c, 4′-O-Demethyl-4β-(1″-pyrenylamino)-4-desoxypodophyllotoxin] |  |  |  |  |  |  | 40% | 7% | 39% | 0% | 40% | 0% | not active | None of the compounds are active
COc1cc([C@@H]2c3cc4c(cc3[C@@H](Nc3cc5c6ccccc6ccc5c5ccccc35)[C@@H]3COC(=O)[C@H]23)OCO4)cc(OC)c1O [Compound 4d, 4′-O-Demethyl-4β-(6″-chrycenylamino)-4-desoxypodophyllotoxin] |  |  |  |  |  |  | 58% | 17% | 76% | 0% | 58% | 0% | not active | None of the compounds are active
COc1cc([C@@H]2c3cc4c(cc3[C@@H](Nc3ccc(C(=O)c5ccc(F)cc5)cc3)[C@@H]3COC(=O)[C@H]23)OCO4)cc(OC)c1O [Compound 4e, 4′-O-Demethyl-4β-[4″-(4″-fluorobenzoyl)anilino]-4-desoxypodophyllotoxin] |  |  |  |  |  |  | 91% | 42% | 51% | 39% | 77% | 11% |  | 
